Source: patent publication US20260001854A1, “CONJUGATE COMPOUND COMPRISING 13-CIS-RETINOIC ACID AND ASCORBIC ACID” (Mastery Biotech CO., LTD., priority 2023, published 2026)
pIC50: −log10 of the molar value.

Columns and labels:
[1] = MTT cell viability (cytotoxicity) assay, A549; format: cell-based; settings: human, A549 cells
A549 = test: MTT cell viability (cytotoxicity) assay, A549; format: cell-based, human; settings: Homo sapiens; A549 cell line, estimated from cell viability values with Quest Graph IC50 Calculator; read-out: IC50 (concentration that inhibited cell survival to 50%)
Procedure: (§1) Cells were cultured in indicated growth medium with 10% FBS and were maintained in a humidified incubator at 37° C. containing 5% CO2. Formula A2 compound was weighted and dissolved in DMSO/EtOH mixture solvent of 1/4 (v/v) ratio to a final concentration of 200 mM at the day of treatment. One day before treatment, cells at log-phase of growth were harvested, counted, and seeded in a 96-well plate at a density of 5×10^3 cells/[…]/well. After cultivation overnight, assumed wells were gently added with […] of fresh media prepared with the serial concentration from 40 to 1000 μM to bring the working concentration from 20 to 500 μM subsequently. The control plate without Formula A2 was carried out as the same procedure as above but […] of fresh media prepared with the equal solvent volume added. All plates were mixed gently and incubated for next 24 hours.
(§2) At the day of cell viability detection, tested wells were added […] of MTT working solution and incubated at 37° C. for 3 hours. Spectrophotometric absorbance readings were recorded at wavelength of 540 nm. Readings from blank wells (wells contains only cell culture medium without cells) and negative control wells (wells with cell and culture medium without Formula A2 and solvent treatment) were recorded and used for calibration. After all readings of OD540 subtracted the blank value, the percentage of cell viability were calculated using the following formula: […]
(§3) The concentration of Compound A that inhibited cell survival to 50% (IC50) was determined by an online tool “Quest Graph™ IC50 Calculator.” AAT Bioquest, Inc., 26 June. 2024, www.aatbio.com/tools/ic50-calculator.

[2] = MTT cell viability (cytotoxicity) assay, A549; format: cell-based, human; settings: human, A549 cells
Procedure: as §1, §2, §3

[3] = MTT cell viability (cytotoxicity) assay, PANC-1; format: cell-based; settings: human, PANC-1 cells, mean of 6 wells
Procedure: as §1, §2, §3

[4] = MTT cell viability (cytotoxicity) assay, Caco-2; format: cell-based; settings: human, mean of 6 wells
Procedure: as §1, §2, §3

Q: For CC1=C(/C=C/C(C)=C/C=C/C(C)=C\C(=O)O)C(C)(C)CCC1 [13-cis retinoic acid, (2Z,4E,6E,8E)-3,7-dimethyl-9-(2,6,6-trimethylcyclohex-1-en-1-yl)nona-2,4,6,8-tetraenoic acid, reference compound], which viability at 24 h, 7.5 μM ([1]; 13-cis RA 7.5 μM) is on record?
A: Its viability at 24 h, 7.5 μM is 95%.

Q: What about the viability at 24 h, 15 μM ([1]; 13-cis RA 15 μM) of the same molecule?
A: The viability at 24 h, 15 μM was 78%.

Q: What about the viability at 24 h, 960 μM ([1]; 13-cis RA 960 μM) of the same molecule?
A: The viability at 24 h, 960 μM was 51%.

Q: And the pIC50 (A549)?
A: Its pIC50 is 3.29.

Q: What about the viability at 24 h, 30 μM ([2]; 13-cis RA 30 μM) of the same molecule?
A: Its viability at 24 h, 30 μM is 75%.

Q: What about the viability at 24 h, 60 μM ([2]; 13-cis RA 60 μM) of the same molecule?
A: Its viability at 24 h, 60 μM is 73%.

Q: What about the viability at 24 h, 120 μM ([2]; 13-cis RA 120 μM) of the same molecule?
A: The viability at 24 h, 120 μM was 57%.

Q: What about the viability at 24 h, 240 μM ([2]; 13-cis RA 240 μM) of the same molecule?
A: Its viability at 24 h, 240 μM is 50%.

Q: What about the viability at 24 h, 480 μM ([2]; 13-cis RA 480 μM) of the same molecule?
A: The viability at 24 h, 480 μM was 50%.

Q: With CC1=C(/C=C/C(C)=C/C=C/C(C)=C\C(=O)OC2=C(O)[C@@H]([C@@H](O)CO)OC2=O)C(C)(C)CCC1 [Formula A1] as the molecule, how does the viability at 24 h, 50 μM ([1]; Formula A1 50 μM, 24 hours, MTT, mean of 6 wells) read?
A: Its viability at 24 h, 50 μM is 94%.

Q: What about the viability at 24 h, 20 μM ([3]; 20 μM) of the same molecule?
A: Its viability at 24 h, 20 μM is 69%.

Q: What about the viability at 24 h, 50 μM ([3]; 50 μM) of the same molecule?
A: Its viability at 24 h, 50 μM is 69%.

Q: And the viability at 24 h, 100 μM ([3]; 100 μM)?
A: The viability at 24 h, 100 μM was 54%.

Q: And the viability at 24 h, 150 μM ([3]; 150 μM)?
A: The viability at 24 h, 150 μM was 50%.

Q: What about the viability at 24 h, 180 μM ([3]; 180 μM) of the same molecule?
A: Its viability at 24 h, 180 μM is 16%.

Q: And the viability at 24 h, 230 μM ([3]; 230 μM)?
A: Its viability at 24 h, 230 μM is 17%.

Q: And the viability at 24 h, 253 μM ([3]; 253 μM)?
A: Its viability at 24 h, 253 μM is 19%.

Q: And the viability at 24 h, 500 µM ([3]; 500 μM)?
A: The viability at 24 h, 500 µM was 22%.

Q: What about the pIC50 (A549) of the same molecule?
A: Its pIC50 is 3.70.

Q: What about the viability at 24 h, 20 μM ([2]; Formula A1 20 μM, 24 hours, MTT, mean of 6 wells) of the same molecule?
A: Its viability at 24 h, 20 μM is 102%.

Q: What about the viability at 24 h, 100 μM ([2]; Formula A1 100 μM, 24 hours, MTT, mean of 6 wells) of the same molecule?
A: Its viability at 24 h, 100 μM is 100%.

Q: And the viability at 24 h, 150 μM ([2]; Formula A1 150 μM, 24 hours, MTT, mean of 6 wells)?
A: Its viability at 24 h, 150 μM is 80%.

Q: What about the viability at 24 h, 180 μM ([2]; Formula A1 180 μM, 24 hours, MTT, mean of 6 wells) of the same molecule?
A: The viability at 24 h, 180 μM was 29%.

Q: What about the viability at 24 h, 230 μM ([2]; Formula A1 230 μM, 24 hours, MTT, mean of 6 wells) of the same molecule?
A: The viability at 24 h, 230 μM was 63%.

Q: What about the viability at 24 h, 253 μM ([2]; Formula A1 253 μM, 24 hours, MTT, mean of 6 wells) of the same molecule?
A: Its viability at 24 h, 253 μM is 28%.

Q: What about the viability at 24 h, 500 µM ([2]; Formula A1 500 μM, 24 hours, MTT, mean of 6 wells) of the same molecule?
A: Its viability at 24 h, 500 µM is 11%.

Q: What about the viability at 24 h, 200 µM ([4]; 200 μM) of the same molecule?
A: The viability at 24 h, 200 µM was 91%.

Q: And the viability at 24 h, 300 µM ([4]; 300 μM)?
A: The viability at 24 h, 300 µM was 58%.

Q: What about the viability at 24 h, 400 µM ([4]; 400 μM) of the same molecule?
A: The viability at 24 h, 400 µM was 33%.

Q: And the viability at 24 h, 500 µM ([4]; 500 μM)?
A: The viability at 24 h, 500 µM was 24%.
